How the values were obtained:
PA14 biofilm = experiment: Biofilm-eradication assay with tobramycin (Calgary biofilm device); type: cell-based, Pseudomonas aeruginosa
Method: MA, USA) instrument parameters: Spray voltage 3500 V, vaporizer temperature 370 °C, sheath gas pressure 35 psi, aux gas pressure 30 psi, capillary temperature 270 °C, collision pressure 1.5 mTorr, positive ionization mode. For AQ analyte reaction monitoring parameters please see Table S1.
Table S1. LC-ESI-MS/MS reaction monitoring parameters of AQ analytes in positive ionization mode. precursor product ion collision tube lens retention ion m/z m/z energy (V) offset (V) time (min)
1.2.4 Biofilm-formation assay
Biofilm formation was determined using a MBEC Assay® Biofilm Inoculator with 96-well base (Innvotech, Edmonton, CA). An overnight culture of PA14 was centrifuged (10 min, 5000 x g). The supernatant including extracellular polymers was removed and the pellet washed with 10 mL of LB medium. Centrifugation was repeated, the supernatant discarded, and the pellet resuspended in 5 mL of LB. OD was adjusted to 0.2. The bacteria were further diluted in LB medium, followed by addition of the target compound or DMSO control to give OD 0.1 and 1% DMSO. 150 µL were added to each well of the 96-well plate. The outer wells were used as blanks containing 150 µL of 1% DMSO in LB. Six replicates per sample were distributed evenly across the plate, with every row containing one replicate of each sample. The well plate was covered with the peg lid. One layer of parafilm was wrapped around the biofilm inoculator. The inoculator was incubated at 37 °C, static for 24 h with a beaker of H2O ensuring humidity. Alternatively, the plate was incubated using only LB for 8 h prior to addition of DMSO/24 to give 1% DMSO, followed by another 16 h incubation under the same […]
After 24 h, the plate was removed from the incubator and the peg lid was transferred to a fresh 96 well plate (Nunc U bottom, Thermo Fisher, Dreieich, Germany) containing the respective target […]
compound, 150 µL 1% DMSO in LB. The inoculator was wrapped with parafilm again and incubated for another 24 h. […]
Statistical outliers were determined using the Nalimov test, applying a 95% cut-off. […]

[1] = system: P. aeruginosa strain ATCC 27853; experiment: Neutropenic thigh infection model in mice
Method: Figure S6. AUC levels after IV and IT administration
1.4.8 In vivo thigh infection model with P. aeruginosa
Male, 6 weeks-old, CD -1 mice (Charles River, Netherlands) were rendered neutropenic by administration of 150 mg/kg and 100 mg/kg cyclophosphamide i.p. on day –4, –1 and +1, respectively. The P. aeruginosa strain ATCC 27853 was used. The inoculum was prepared as follows: on day –1 the P. aeruginosa strain was streaked out onto a blood agar plate and incubated at 37 °C.
Then one sing le colony was inoculated into MHB medium (diluted 1:2 in water) and incubated at 120 rpm and 37 °C. […]
PBS. Then they were adjusted to an OD of 1 and diluted 1:5000 in PBS. The inoculum was plated onto MHB agar plates in serial dilutions and incubated at 37 °C. Mice were grouped into the following (n=18 for each group): (1) baseline inoculum group, sacrificed 2 h post infection; (2) vehicle control group (receiving vehicle t= 2, 12, 24 and 36 h post infection as well as 20 mg/kg tramadol SC t= 0 and 24 h post infection); (3) tobramycin group I (8 mg/kg tobramycin IV at t= 2 and 24 h post infection); (4) tobramycin group II (1 mg/kg tobramycin IV at t= 2 and 24 h post infection); (5) 24 group (30 mg/kg 24 SC at t=2, 12, 24 and 36 h post infection); (6) 24 + tobramycin group (30 mg/kg 24 SC at t=2, 12, 24 and 36 h and tobramycin 1 mg/kg IV at t= 2 and 24 h post infection). On the day of infection (day 0), mice received 30 µL of the P. aeruginosa strain ATCC 27853 into each lateral thigh (inoculum:
1x10^5 cfu/mL). 48 h after infection, mice were euthanized, blood was removed from the heart, lung and thighs were aseptically removed. […]
homogenized in 0.9% NaCl-solution and plated onto MHB agar plates in duplicate in serial dilutions and incubated at 37 °C for 24 h. Blood, lung and thighs were also subjected to LC-MS/MS analysis.
Figure S8. Plasma and lung-tissue levels after the in vivo infection model.

Row | Structure (SMILES) | Effect of tobramycin alone on untreated biofilms (CFU) (PA14 biofilm; tobramycin 0.5 µg mL^−1, 24 h treatment, p = 0.03) | terminal level in plasma and lung tissue (LC–MS/MS) ([1]; 48 h after infection) | CFU reduction over vehicle, primary infection site (thigh muscle) ([1]; tobramycin high, 8 mg/kg IV at 2 and 24 h p.i., 48 h) | bacterial burden, secondary site of infection (lung), dissemination ([1]; tobramycin high, 8 mg/kg IV, 48 h) | CFU reduction over vehicle, primary infection site (thigh muscle) ([1]; tobramycin low, 1 mg/kg IV at 2 and 24 h p.i., 48 h) | bacterial burden, secondary site of infection (lung), dissemination ([1]; tobramycin low, 1 mg/kg IV, 48 h) | Potentiation of tobramycin activity on biofilm (PA14 biofilm; 0.1 × 10^−6 M 24 plus tobramycin 0.5 µg mL^−1, p = 0.21) | CFU reduction of combination treatment compared to single treatment with the antibiotic (PA14 biofilm; 1 and 10 × 10^−6 M 24 plus tobramycin 0.5 µg mL^−1) [fold] | bacterial burden in the muscle compared to all other groups ([1]; 24 30 mg kg^−1 SC combined with low dose tobramycin 1 mg kg^−1 IV, 48 h, p < 0.001) | bacterial burden, secondary site of infection (lung), dissemination ([1]; 24 30 mg/kg SC combined with low tobramycin dose 1 mg/kg IV, 48 h) | CFU reduction over vehicle, primary infection site (thigh muscle) ([1]; 24 alone, 30 mg/kg SC at 2, 12, 24 and 36 h p.i., 48 h) | bacterial burden, secondary site of infection (lung), dissemination ([1]; 24 alone, 30 mg/kg SC, 48 h)
1 | NC[C@H]1O[C@H](O[C@H]2[C@H](O)[C@@H](O[C@H]3O[C@H](CO)[C@@H](O)[C@H](N)[C@H]3O)[C@H](N)C[C@@H]2N)[C@H](N)C[C@@H]1O [Tobramycin, tobramycin] | only minor effects | did not detect any | did not exert significant effects | did not reach significance | did not exert significant effects | did not show a significant effect |  |  |  |  |  | 
2 | CC(C)Oc1ccc(-c2ncc(CNc3ccnc(C(F)(F)F)c3)cn2)cc1Cl [Compound 24] |  |  |  |  |  |  | not sufficient | > 3 | significantly reduced bacterial burden | detectable inhibition of dissemination | did not exert significant effects | did not show a significant effect
